In series [1] the test system is leukaemia SR cells. The series is described as follows: Anti-proliferative effect against SR cell line (MTT assay). Particulars: Homo sapiens; leukaemia SR cells; unit as in head of Table 3; read-out: Cytotoxicity IC50, SR. Type of series: cell-based. On the procedure: The anti-proliferative effect of the 5e counterpart against the SR cell line was estimated using the MTT assay protocol.
Depending on the previous results, the cytotoxic activity of the designed candidate 5e was then evaluated against leukaemia SR cells. Doxorubicin was also evaluated as a reference drug.
On the technique in general: Tetrazolium assays rely on reduction of a dye to a coloured formazan, in cell work by metabolically active cells.

The test system of series [2] is Solid Ehrlich carcinoma (SEC). In words: In vivo anti-tumour activity in SEC-bearing mice. Particulars: 6 mg/Kg B.W., IP. Set-up: species or system Swiss albino mice. On the procedure: (§1) The full methodology of tumour induction, treatments, and blood measurements was carried out according to the described details in the supporting information (SI 5). Moreover, the experimental protocol was approved by the Research Ethics Committee at Suez Canal University (Approval number REC139/2022, Chemistry Department, Faculty of Science, Suez Canal University). […]
SI 5.1. Animals and tumor cell line
Adult female Swiss albino mice purchased from Theodor Bilharzia Research Institute, Giza, Egypt, with an average body weight of (18-23) g was used. Mice were housed under constant conditions of 12 h light/dark cycle in a […], with free access to standard laboratory mice food and water.
All procedures related to care and maintenance of the animals were performed according to the international guiding principles for animal research and approved by Faculty of Science, Suez Canal University bioethics and animal ethics committee (Approval number REC-01-2022).
Solid Ehrlich carcinoma (SEC) were got from the National Cancer Institute (Cairo University, Egypt). The tumor cell line was proliferated in mice through serial intraperitoneal (I.P.) transplantation of a volume of 0.2 mL physiological saline contains 1 × 10^6 viable cells for 24 h. SEC cells were collected 7 days after I.P. implantation. The harvested cells were diluted with saline to obtain a concentration of 5 × 10^6 viable SEC cells/mL. A volume of 0.2 mL saline contains 1 × 10^6 SEC cells […]
(§2) that were I.P. implanted into each normal mouse. SEC cells (1 × 10^6 tumor cells/mouse) were implanted subcutaneously into the right thigh of the hind limb.
(§3) The experimental animals were randomly divided into four groups. Group 1 served as the normal saline control. Group 2 served as the SEC control (1 × 10^6 cells/mouse). Group 3 served as the compound-treated group (6 mg/kg B.Wt., I.P.). Group 4 received the standard anticancer drug of […]
survival were recorded daily until the 24th day in both treated and control groups. At the end of experiment, the blood of each group was collected under light anesthesia for estimation of hematological and biochemical assays. The anesthetized animals were then sacrificed for evaluation of the antitumor activity and histopathological examination.
SI 5.2. Antitumor potentiality
It includes tumor volume, weight, and tumor inhibition ration (TIR%). Time interval measurements of tumor volume using digital Vernier caliper (Tricle Brand, Shanghai, China). Measure tumor length and width using clipper and then calculate tumor volume using formulations V = (L x W x W)/2, where V is tumor volume, W is tumor width, L is tumor length. While TIR% was calculated according to the following equation: […]. […]

Series [3] can be described thus: Liver enzymes (ALT, AST) in SEC-bearing mice. Type of series: in vivo, Swiss albino mice. As to conditions: 6 mg/Kg B.W., IP. The procedure:
as §1, §2, §3
survival were recorded daily until the 24th day in both treated and control groups. At the end of experiment, the blood of each group was collected under light anesthesia for estimation of hematological and biochemical assays. The anesthetized animals were then sacrificed for evaluation of the antitumor activity and histopathological examination. […]
At the end of the experiment, animals from different groups were sacrificed, and blood samples were collected for determination of liver enzymes ALT, AST levels. Activities of aspartate aminotransferase (AST) and alanine aminotransferase (ALT) were evaluated using commercial kits (ELITech clinical systems, France). […]

Series [4] in a line: Cytotoxic effect against normal cell line. The class given is cell-based. As to conditions: human, normal cell line PSC-800-011; read-out: Cytotoxicity IC50, PSC-800-011. On the procedure:
Following, the cytotoxic effect of compound 5e against a normal cell line, PSC-800–011, was also assigned to evaluate the selectivity of the compound towards the cancer cell lines. […] However, the selectivity index (SI) of compound 5e was also calculated to confirm its selectivity. It was known that any sample that has an SI value higher than 3 will be considered to have high selectivity.

SMILES strings stand for the structures.

As for `COc1cccc2c1C(=O)c1c(O)c3c(c(O)c1C2=O)C[C@@](O)(C(=O)CO)C[C@@H]3O[C@H]1C[C@H](N)[C@H](O)[C@H](C)O1` [Doxorubicin, reference compound], the IC50 in series [1] is 3.78 ± 0.14 µM; in series [4] it was 12.8 ± 0.79 µM. In series [2] (SEC control 226 mg), the Solid tumour mass came out at 82.3 mg. The compound further had a Tumour volume in series [2] (SEC control 80.6 mm^3) of 27.5 mm^3. For the same compound, the ALT in series [3] (SEC control 65.9 U/L) is recorded as 34.8 U/L. The compound also came in with an AST in series [3] (SEC control 71 U/L) of 35.6 U/L.

In general, IC50 refers to the point on the concentration scale where inhibition reaches its midpoint.

These data come from PMC9848257, “Design and synthesis of novel rigid dibenzo[b,f]azepines through ring closure technique as promising anticancer candidates against leukaemia and acting as selective topoisomerase II inhibitors and DNA intercalators” (Journal of Enzyme Inhibition and Medicinal Chemistry, 2023).
